Experimental data reported in ChEMBL document CHEMBL1201861, “Genomics of Drug Sensitity in Cancer screening data, Wellcome Trust Sanger Institute”.

Tests used:
Experiment in all cases: cells
Format in all cases: functional, cell-based, Homo sapiens
Capan-2 = details: Homo sapiens, Capan-2;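 also: Capan-2 cell growth inhibition, read out with a viability assay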
Description: SANGER: Inhibition of human Capan-2 cell growth in a cell viability assay.

DBTRG-05MG = details: Homo sapiens, DBTRG-05MG;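 also: cell viability assay measuring growth inhibition of human DBTRG-05MG cells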
Description: SANGER: Inhibition of human DBTRG-05MG cell growth in a cell viability assay.

EGI-1 = details: Homo sapiens, EGI-1;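 also: cell viability readout used to gauge growth inhibition of EGI-1 cells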
Description: SANGER: Inhibition of human EGI-1 cell growth in a cell viability assay.

FTC-133 = details: Homo sapiens, FTC-133
HCC1395 = details: Homo sapiens, HCC1395;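 also: growth inhibition of HCC1395 cells, read out by a cell viability assay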
Description: SANGER: Inhibition of human HCC1395 cell growth in a cell viability assay.

HCC1806 = details: Homo sapiens, HCC1806;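 also: growth inhibition of the cancer cell line, determined with a cell viability assay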
Description: SANGER: Inhibition of human HCC1806 cell growth in a cell viability assay.

HN = details: Homo sapiens, HN
Description: SANGER: Inhibition of human HN cell growth in a cell viability assay.

HuP-T3 = details: Homo sapiens, HuP-T3;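 also: HuP-T3 cell growth inhibition, read out with a cell viability assay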
Description: SANGER: Inhibition of human HuP-T3 cell growth in a cell viability assay.

KU-19-19 = details: Homo sapiens, KU-19-19
Description: SANGER: Inhibition of human KU-19-19 cell growth in a cell viability assay.

KYSE-270 = details: Homo sapiens, KYSE-270;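 also: cell growth inhibition measured with a viability assay in the human KYSE-270 line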
Description: SANGER: Inhibition of human KYSE-270 cell growth in a cell viability assay.

KYSE-510 = details: Homo sapiens, KYSE-510;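 also: cell viability readout used to measure how strongly growth of the cell line is suppressed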
Description: SANGER: Inhibition of human KYSE-510 cell growth in a cell viability assay.

M059J = details: Homo sapiens, M059J;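 also: growth inhibition of M059J cells, read out with a cell viability assay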
Description: SANGER: Inhibition of human M059J cell growth in a cell viability assay.

MDA-MB-157 = details: Homo sapiens, MDA-MB-157
Description: SANGER: Inhibition of human MDA-MB-157 cell growth in a cell viability assay.

ME-180 = details: Homo sapiens, ME-180;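 also: cell viability assay measuring growth inhibition of ME-180 cells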
Description: SANGER: Inhibition of human ME-180 cell growth in a cell viability assay.

NCI-H1623 = details: Homo sapiens, NCI-H1623;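 also: cell viability assay used as the read-out for growth inhibition of NCI-H1623 cells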
Description: SANGER: Inhibition of human NCI-H1623 cell growth in a cell viability assay.

NCI-H2291 = details: Homo sapiens, NCI-H2291
Description: SANGER: Inhibition of human NCI-H2291 cell growth in a cell viability assay.

NCI-H2347 = details: Homo sapiens, NCI-H2347;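 also: growth inhibition of the cell line, read out with a cell viability assay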
Description: SANGER: Inhibition of human NCI-H2347 cell growth in a cell viability assay.

NCI-H810 = details: Homo sapiens, NCI-H810;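 also: IC50 reflects inhibition of cancer cell line growth, read out with a cell viability assay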
Description: SANGER: Inhibition of human NCI-H810 cell growth in a cell viability assay.

OAW-28 = details: Homo sapiens, OAW-28;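 also: growth inhibition of OAW-28 cells, read out with a cell viability assay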
Description: SANGER: Inhibition of human OAW-28 cell growth in a cell viability assay.

OE19 = details: Homo sapiens, OE19;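 also: growth inhibition of OE19 cells, measured through a cell viability read-out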
Description: SANGER: Inhibition of human OE19 cell growth in a cell viability assay.

PA-1 = details: Homo sapiens, PA-1;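 also: IC50 for suppression of PA-1 cell proliferation, determined with a cell viability read-out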
Description: SANGER: Inhibition of human PA-1 cell growth in a cell viability assay.

SAS = details: Homo sapiens, SAS;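 also: growth inhibition of SAS cells, read out with a cell viability assay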
Description: SANGER: Inhibition of human SAS cell growth in a cell viability assay.

SNU-423 = details: Homo sapiens, SNU-423
Description: SANGER: Inhibition of human SNU-423 cell growth in a cell viability assay.

SW626 = details: Homo sapiens, SW626;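 also: growth inhibition of SW626 cells, measured with a cell viability assay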
Description: SANGER: Inhibition of human SW626 cell growth in a cell viability assay.

SW948 = details: Homo sapiens, SW948;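 also: growth inhibition of SW948 cells, read out with a cell viability assay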
Description: SANGER: Inhibition of human SW948 cell growth in a cell viability assay.

SiHa = details: Homo sapiens, SiHa;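 also: Viability-based readout of growth inhibition in SiHa cells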
Description: SANGER: Inhibition of human SiHa cell growth in a cell viability assay.

T-24 = details: Homo sapiens, T-24;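 also: growth inhibition of T-24 cells, read out with a cell viability assay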
Description: SANGER: Inhibition of human T-24 cell growth in a cell viability assay.

A204 = details: Homo sapiens, A204;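 also: growth inhibition of human A204 cells, read out with a cell viability assay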
Description: SANGER: Inhibition of human A204 cell growth in a cell viability assay.

A-375 = details: Homo sapiens, A-375;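 also: growth inhibition of A375 cells, read out with a cell viability assay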
Description: SANGER: Inhibition of human A375 cell growth in a cell viability assay.

AU565 = details: Homo sapiens, AU565;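 also: cell viability assay measuring growth inhibition of human AU565 cells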
Description: SANGER: Inhibition of human AU565 cell growth in a cell viability assay.

ASPC1 = details: Homo sapiens, ASPC1;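 also: growth inhibition of AsPC-1 cells, read out with a cell viability assay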
Description: SANGER: Inhibition of human AsPC-1 cell growth in a cell viability assay.

C32 = details: Homo sapiens, C32;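 also: cell viability assay, with IC50 reflecting inhibition of C32 cell growth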
Description: SANGER: Inhibition of human C32 cell growth in a cell viability assay.

CAL-54 = details: Homo sapiens, CAL-54;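 also: growth inhibition of CAL-54 cells, read out by a viability measurement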
Description: SANGER: Inhibition of human CAL-54 cell growth in a cell viability assay.

UACC-62 = details: Homo sapiens, UACC-62;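 also: growth inhibition of human UACC-62 cells, read out by a cell viability assay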
Description: SANGER: Inhibition of human UACC-62 cell growth in a cell viability assay.

VMRC-RCZ = details: Homo sapiens, VMRC-RCZ;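 also: growth inhibition measured with a cell viability assay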
Description: SANGER: Inhibition of human VMRC-RCZ cell growth in a cell viability assay.

WM-115 = details: Homo sapiens, WM-115
Description: SANGER: Inhibition of human WM-115 cell growth in a cell viability assay.

CFPAC-1 = details: Homo sapiens, CFPAC-1;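 also: cell viability readout used to gauge suppression of CFPAC-1 cell proliferation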
Description: SANGER: Inhibition of human CFPAC-1 cell growth in a cell viability assay.

COLO-678 = details: Homo sapiens, COLO-678
Description: SANGER: Inhibition of human COLO-678 cell growth in a cell viability assay.

MEL-JUSO = details: Homo sapiens, MEL-JUSO;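 also: growth inhibition of human MEL-JUSO cells, read out with a cell viability assay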
Description: SANGER: Inhibition of human MEL-JUSO cell growth in a cell viability assay.

| SMILES | IC50 (DBTRG-05MG) [µM] | IC50 (FTC-133) [µM] | IC50 (HCC1395) [µM] | IC50 (HCC1806) [µM] | IC50 (HN) [µM] | IC50 (KU-19-19) [µM] | IC50 (KYSE-270) [µM] | IC50 (KYSE-510) [µM] | IC50 (M059J) [µM] | IC50 (ME-180) [µM] | IC50 (NCI-H2291) [µM] | IC50 (NCI-H810) [µM] | IC50 (OAW-28) [µM] | IC50 (OE19) [µM] | IC50 (PA-1) [µM] | IC50 (SAS) [µM] | IC50 (SNU-423) [µM] | IC50 (SW626) [µM] | IC50 (SW948) [µM] | IC50 (SiHa) [µM] | further results |
| --- | --- | --- | --- | --- | --- | --- | --- | --- | --- | --- | --- | --- | --- | --- | --- | --- | --- | --- | --- | --- | --- |
| CCN(CC)CCCCNc1ncc2cc(-c3cc(OC)cc(OC)c3)c(NC(=O)NC(C)(C)C)nc2n1 [PD-173074] | > 2 | > 2 | > 2 | > 2 | > 2 | > 2 | > 2 | > 2 | > 2 | > 2 | > 2 | > 2 | > 2 | > 2 | > 2 | > 2 | > 2 | > 2 | > 2 | > 2 | IC50 (Capan-2): > 2 µM; IC50 (EGI-1): > 2 µM; IC50 (HuP-T3): > 2 µM; IC50 (MDA-MB-157): > 2 µM; IC50 (NCI-H1623): > 2 µM; IC50 (NCI-H2347): > 2 µM; IC50 (T-24): > 2 µM; IC50 (A204): > 2 µM; IC50 (A-375): > 2 µM; IC50 (AU565): > 2 µM; IC50 (ASPC1): > 2 µM; IC50 (C32): > 2 µM; IC50 (CAL-54): > 2 µM; IC50 (UACC-62): > 2 µM; IC50 (VMRC-RCZ): > 2 µM; IC50 (WM-115): > 2 µM; IC50 (CFPAC-1): > 2 µM; IC50 (COLO-678): > 2 µM |
| COc1cc2c(Nc3ccc(NC(=O)c4ccccc4)cc3)ncnc2cc1OCCCN1CCOCC1 | > 4 | > 4 | > 4 | > 4 | 1.93 | > 4 | > 4 | 3.64 | > 4 | > 4 | > 4 | > 4 | > 4 | > 4 | 2.87 | > 4 | > 4 | > 4 | > 4 | > 4 | IC50 (Capan-2): > 4 µM; IC50 (EGI-1): > 4 µM; IC50 (HuP-T3): > 4 µM; IC50 (MDA-MB-157): > 4 µM; IC50 (NCI-H1623): > 4 µM; IC50 (NCI-H2347): > 4 µM; IC50 (T-24): > 4 µM; IC50 (A204): > 4 µM; IC50 (A-375): 3.85 µM; IC50 (AU565): > 4 µM; IC50 (ASPC1): > 4 µM; IC50 (C32): 3.83 µM; IC50 (CAL-54): > 4 µM; IC50 (UACC-62): > 4 µM; IC50 (VMRC-RCZ): > 4 µM; IC50 (WM-115): > 4 µM; IC50 (CFPAC-1): > 4 µM; IC50 (COLO-678): > 4 µM |
| CC1(C)CNc2cc(NC(=O)c3cccnc3NCc3ccncc3)ccc21 [MOTESANIB] | > 2 | > 2 | > 2 | > 2 | > 2 | > 2 | > 2 | > 2 | > 2 | > 2 | > 2 | > 2 | > 2 | > 2 | > 2 | > 2 | > 2 | > 2 | > 2 | > 2 | IC50 (Capan-2): > 2 µM; IC50 (EGI-1): > 2 µM; IC50 (HuP-T3): > 2 µM; IC50 (MDA-MB-157): > 2 µM; IC50 (NCI-H1623): > 2 µM; IC50 (NCI-H2347): > 2 µM; IC50 (T-24): > 2 µM; IC50 (A204): 0.519 µM; IC50 (A-375): > 2 µM; IC50 (AU565): > 2 µM; IC50 (ASPC1): > 2 µM; IC50 (C32): > 2 µM; IC50 (CAL-54): > 2 µM; IC50 (UACC-62): > 2 µM; IC50 (VMRC-RCZ): > 2 µM; IC50 (WM-115): > 2 µM; IC50 (CFPAC-1): > 2 µM; IC50 (COLO-678): > 2 µM |
| Cn1cnc2c(F)c(Nc3ccc(Br)cc3Cl)c(C(=O)NOCCO)cc21 [SELUMETINIB] | > 4 | > 4 | > 4 | > 4 | 1 | 3.42 | > 4 | > 4 | > 4 | > 4 | 0.762 | > 4 | 1.74 | > 4 | > 4 | > 4 | > 4 | > 4 | > 4 | > 4 | IC50 (Capan-2): > 4 µM; IC50 (EGI-1): 1.83 µM; IC50 (HuP-T3): > 4 µM; IC50 (MDA-MB-157): > 4 µM; IC50 (NCI-H1623): > 4 µM; IC50 (NCI-H2347): > 4 µM; IC50 (T-24): > 4 µM; IC50 (A204): 1.52 µM; IC50 (AU565): > 4 µM; IC50 (ASPC1): 0.324 µM; IC50 (C32): 0.0982 µM; IC50 (CAL-54): 1.49 µM; IC50 (UACC-62): > 4 µM; IC50 (VMRC-RCZ): > 4 µM; IC50 (WM-115): 0.268 µM; IC50 (CFPAC-1): > 4 µM; IC50 (COLO-678): 1.62 µM |
| CN(C)C(=N)NC(=N)N [METFORMIN] | 7270 | > 20000 | > 20000 | > 20000 | > 20000 | 9610 | > 20000 | > 20000 | > 20000 | > 20000 | > 20000 | > 20000 | > 20000 | > 20000 | 14200 | 11300 | > 20000 | > 20000 | > 20000 | > 20000 | IC50 (MEL-JUSO): 16000 µM; IC50 (ASPC1): 5370 µM; IC50 (C32): > 20000 µM; IC50 (CAL-54): 3360 µM; IC50 (WM-115): > 20000 µM; IC50 (CFPAC-1): > 20000 µM; IC50 (COLO-678): > 20000 µM |
